From ChEMBL document CHEMBL1155321, “Dopamine D3 receptor antagonists: the quest for a potentially selective PET ligand. Part 3: Radiosynthesis and in vivo studies” (Bioorg Med Chem Lett, 2009)

Assays:
[1] = Intrinsic clearance in human liver microsomes; assay type: ADME, Microsome
[2] = Intrinsic clearance in rat liver microsomes; assay type: ADME, Microsome

CLint scaled [1]: 8.9 mL/min/kg
CLint scaled [2]: 36.9 mL/min/kg
SMILES: O=C1N(CCN2Cc3ccccc3C2)CCN1c1cccc(Cl)c1
